Assay results from ChEMBL document CHEMBL1146745, “Studies on anti-Helicobacter pylori agents. Part 3: A novel, efficacious cephem derivative, FR193879” (Bioorg Med Chem Lett, 2004).
Values after ≈ are worked out from the molar mass of the structure shown. Values belong to the molecule of their own block, whether it stands above or below them.

Experiments:
Rattus norvegicus [1] = assay: Recovery rate from urine and bile was determined after iv administration at 20 mg/kg in rats; format: functional, organism-based; design: dose 20 mg/kg
[2] = Therapeutic efficacy at a dose of 0.1 mg/kg; format: ADME, organism-based; design: dose 0.1 mg/kg; conditions: in vivo
Helicobacter pylori [3] = assay: Minimum inhibitory concentration against Helicobacter pylori FP1757; format: functional
[4] = Partition coefficient by HPLC retention as an index of polarity; format: ADME; conditions: octanol/water
[5] = Therapeutic efficacy at a dose of 0.32 mg/kg; format: ADME, organism-based; design: dose 0.32 mg/kg; conditions: in vivo
Helicobacter pylori [6] = assay: Minimum inhibitory activity against clarithromycin- and metronidazole-resistant strain 16043; format: functional
Helicobacter pylori [7] = assay: Minimum inhibitory activity against clarithromycin- and metronidazole-resistant strain 15069; format: functional
Helicobacter pylori [8] = assay: Minimum inhibitory activity against clarithromycin- and metronidazole-resistant strain 16021; format: functional
Bacteroides fragilis [9] = assay: Stability towards beta-lactamase was determined in […] FP784; format: functional, organism-based
Rattus norvegicus [10] = assay: In vivo gastric mucosa concentration administered perorally at 20 mg/kg was determined in rats at 1 hr; format: functional; conditions: route oral
[11] = Therapeutic efficacy at an oral dose of 0.032 mg/kg in mouse; format: ADME, organism-based; design: dose 0.032 mg/kg, route oral; conditions: in vivo
[12] = Therapeutic efficacy at an oral dose of 0.32 mg/kg in mouse; format: ADME, organism-based; design: dose 0.32 mg/kg, route oral; conditions: in vivo
[13] = Solubility at a pH of 2.0; format: physicochemical; conditions: pH 2
[14] = Retention time by HPLC as an index of polarity
[15] = Therapeutic efficacy at an oral dose of 2 mg/kg in guinea pig; format: ADME, organism-based; design: dose 2 mg/kg, route oral; conditions: in vivo
[16] = Therapeutic efficacy at an oral dose of 0.5 mg/kg in guinea pig; format: ADME, organism-based; design: dose 0.5 mg/kg, route oral; conditions: in vivo
Rattus norvegicus [17] = assay: In vivo gastric mucosa concentration administered perorally at 20 mg/kg was determined in rats at 0.5 hr; format: functional; conditions: route oral
Helicobacter pylori [18] = assay: Minimum inhibitory activity against Helicobacter pylori FP1836; format: functional
[19] = Therapeutic efficacy at an oral dose of 0.125 mg/kg in guinea pig; format: ADME, organism-based; design: dose 0.125 mg/kg, route oral; conditions: in vivo
[20] = Solubility at a pH of 4.0; format: physicochemical; conditions: pH 4
Rattus norvegicus [21] = assay: In vivo gastric mucosa concentration administered perorally at 20 mg/kg was determined in rats at 4 hr; format: functional; conditions: route oral
Rattus norvegicus [22] = assay: In vivo gastric mucosa concentration administered perorally at 20 mg/kg was determined in rats at 2 hr; format: functional; conditions: route oral
[23] = Therapeutic efficacy at an oral dose of 0.1 mg/kg in mouse; format: ADME, organism-based; design: dose 0.1 mg/kg, route oral; conditions: in vivo
Helicobacter pylori [24] = assay: Minimum inhibitory activity against Helicobacter pylori FP1757; format: functional
Bacteroides fragilis [25] = assay: Relative stability towards beta-lactamase was determined in […] FP784; format: functional
Canis familiaris = assay: Non-toxic dose in dogs after 4 weeks of oral administration; format: functional, Canis lupus familiaris

SMILES: O=C(Cc1ccccc1)NC1C(=O)N2C(C(=O)O)=C(Sc3nncs3)CS[C@H]12 (some centres undefined)
- Recovery rate (Rattus norvegicus [1]): 9%

- Ratio [2]: 0
- MIC (Helicobacter pylori [3]): 0.00078 µg/mL (≈ 0.00166 µM)
- HPLC retention time [4]: 1 min
- Ratio [5]: 1
SMILES: Cc1nnc(SC2=C(C(=O)O)N3C(=O)[C@@H](NC(=O)Cc4csc(N)n4)[C@H]3SC2)s1

SMILES: O=C(N[C@H](CO)[C@H](O)c1ccc([N+](=O)[O-])cc1)C(Cl)Cl [CHLORAMPHENICOL]
- MIC (Helicobacter pylori [6]): 50 µg/mL (≈ 155 µM)
- MIC (Helicobacter pylori [7]): 25 µg/mL (≈ 77.4 µM)
- MIC (Helicobacter pylori [8]): 50 µg/mL (≈ 155 µM)

- Km (Bacteroides fragilis [9]): 31.7 µg/mL
SMILES: O=C(Cc1cccs1)N[C@@H]1C(=O)N2C(C(=O)[O-])=C(C[n+]3ccccc3)CS[C@H]12

SMILES: Cc1ncc([N+](=O)[O-])n1CCO [METRONIDAZOLE]
- MIC (Helicobacter pylori [6]): 50 µg/mL (≈ 292 µM)
- MIC (Helicobacter pylori [7]): 25 µg/mL (≈ 146 µM)
- MIC (Helicobacter pylori [8]): 50 µg/mL (≈ 292 µM)

SMILES: O=C(Cc1ccccc1)NC1C(=O)N2C(C(=O)O)=C(Sc3cnns3)CS[C@H]12 (some centres undefined)
- Recovery rate (Rattus norvegicus [1]): 21%

- Ratio [11]: 2
- Ratio [12]: 5
- solubility [13]: 125 µg/mL (≈ 254 µM)
- HPLC retention time [14]: 9.9 min
- Ratio [15]: 2
- Ratio [16]: 0
- MIC50 (Helicobacter pylori [18]): 0.00313 µg/mL (≈ 0.00637 µM)
- Ratio [19]: 0
- solubility [20]: 1820 µg/mL (≈ 3700 µM)
- Ratio [23]: 1
- MIC50 (Helicobacter pylori [24]): 0.00039 µg/mL (≈ 0.000793 µM)
SMILES: O=C(O)Cc1csc(SC2=C(C(=O)O)N3C(=O)[C@@H](NC(=O)Cc4ccccc4)[C@H]3SC2)n1
- Gastric concentration (Rattus norvegicus [10]): 150 µg/g
- Gastric concentration (Rattus norvegicus [17]): 377 µg/g
- Gastric concentration (Rattus norvegicus [21]): 63 µg/g
- Gastric concentration (Rattus norvegicus [22]): 111 µg/g

SMILES: CC1(C)S[C@@H]2[C@H](NC(=O)[C@H](N)c3ccc(O)cc3)C(=O)N2[C@H]1C(=O)O [AMOXICILLIN]
- MIC (Helicobacter pylori [6]): 0.05 µg/mL (≈ 0.137 µM)
- MIC (Helicobacter pylori [7]): 0.2 µg/mL (≈ 0.547 µM)
- MIC (Helicobacter pylori [8]): 0.025 µg/mL (≈ 0.0684 µM)
- MIC50 (Helicobacter pylori [18]): 0.05 µg/mL (≈ 0.137 µM)
- Km (Bacteroides fragilis [9]): 27.3 µg/mL
- Vmax (Bacteroides fragilis [9]): 0.0175
- MIC50 (Helicobacter pylori [24]): 0.0125 µg/mL (≈ 0.0342 µM)

SMILES: O=C(Cc1ccccc1)NC1C(=O)N2C(C(=O)O)=C(Sc3nccs3)CS[C@H]12 (some centres undefined)
- Recovery rate (Rattus norvegicus [1]): 63%

SMILES: NC(=O)Cc1csc(SC2=C(C(=O)O)N3C(=O)[C@@H](NC(=O)Cc4ccccc4)[C@H]3SC2)n1
- Gastric concentration (Rattus norvegicus [10]): 163 µg/g
- Ratio [11]: 1
- Ratio [12]: 5
- solubility [13]: 431 µg/mL (≈ 879 µM)
- HPLC retention time [14]: 6.2 min
- Ratio [15]: 5
- Ratio [16]: 3
- MIC (Helicobacter pylori [6]): 0.0016 µg/mL (≈ 0.00326 µM)
- Gastric concentration (Rattus norvegicus [17]): 385 µg/g
- MIC (Helicobacter pylori [7]): 0.0063 µg/mL (≈ 0.0128 µM)
- MIC (Helicobacter pylori [8]): 0.0016 µg/mL (≈ 0.00326 µM)
- MIC50 (Helicobacter pylori [18]): 0.00313 µg/mL (≈ 0.00638 µM)
- Ratio [19]: 0
- Ratio (Bacteroides fragilis [25]): 1.06
- solubility [20]: 2210 µg/mL (≈ 4500 µM)
- Gastric concentration (Rattus norvegicus [21]): 38 µg/g
- Dose (Canis familiaris): >100 mg/kg
- Recovery rate (Rattus norvegicus [1]): 68%
- Km (Bacteroides fragilis [9]): 19.4 µg/mL
- Vmax (Bacteroides fragilis [9]): 0.647
- Gastric concentration (Rattus norvegicus [22]): 68 µg/g
- Ratio [23]: 4
- MIC50 (Helicobacter pylori [24]): 0.00078 µg/mL (≈ 0.00159 µM)

SMILES: Cc1nnc(SC2=C(C(=O)O)N3C(=O)C(NC(=O)Cc4ccccc4)[C@H]3SC2)s1 (some centres undefined)
- Gastric concentration (Rattus norvegicus [10]): 83 µg/g
- Ratio [11]: 1
- Ratio [12]: 5
- solubility [13]: 53 µg/mL (≈ 118 µM)
- Ratio [2]: 2
- HPLC retention time [14]: 10 min
- Ratio [15]: 5
- Ratio [16]: 2
- Gastric concentration (Rattus norvegicus [17]): 89 µg/g
- MIC50 (Helicobacter pylori [18]): 0.00313 µg/mL (≈ 0.00698 µM)
- Ratio [19]: 0
- solubility [20]: 1050 µg/mL (≈ 2340 µM)
- MIC (Helicobacter pylori [3]): 0.00156 µg/mL (≈ 0.00348 µM)
- Gastric concentration (Rattus norvegicus [21]): 23 µg/g
- Dose (Canis familiaris): <32 mg/kg
- Recovery rate (Rattus norvegicus [1]): 33%
- Gastric concentration (Rattus norvegicus [22]): 48 µg/g
- HPLC retention time [4]: 10 min
- Ratio [5]: 5
- Ratio [23]: 2
